Experimental data published in the NIST ThermoML archive (doi:10.1016/j.jct.2016.12.030).
Numbers after ± are expanded uncertainties.

settings: Crystal; DTA

Structure (SMILES) | Normal melting temperature
[Hg] [mercury] | -38.86 ± 0.5 °C
O [water] | 0.00 ± 0.5 °C
CCCCCC [hexane] | -95.76 ± 0.5 °C
